The values that follow come from patent US20230105212A1, “BIPHENYL DERIVATIVE INHIBITOR, PREPARATION METHOD THEREFOR AND USE THEREOF” (SHANGHAI HANSOH BIOMEDICAL CO., LTD., priority 2020, published 2023).

The target in assay [1] is T1, PD-L1 protein on the surface of MC38-hPDL1 tumor cells (Homo sapiens, UniProt Q9NZQ7).
T1 construct: expressed in transfected cells; host or cells: MC38-hPDL1 (mouse colon cancer cells)
In words: Induction of endocytosis of PD-L1 on the surface of tumor cells (flow cytometry). In kind it is cell-based. The conditions noted are these: for Emax: MC38-hPDL1 cells, read-out: MC38 maximum endocytosis rate. In a few lines:
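MC38-hPDL1 mouse colon cancer cells overexpressing human PD-L1 were exposed to compound dilutions for 16 h at 37 °C. Surface PD-L1 was then stained with PE anti-human CD274 for 30 min at room temperature and measured by flow cytometry. Endocytosis rate versus concentration was fitted by nonlinear regression to give IC50.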

Assay [2] has as its system CHO-PDL1/Jurkat-PD1 cell pathway. In words: Inhibition of CHO-PDL1/Jurkat-PD1 cell pathway (NFAT luciferase reporter). In kind it is cell-based. Particulars: for EC50: 6 hours incubation, luciferase signal; for maximal fold induction: relative to the signal value of the non-dosed group, read-out: Maximum induction fold. In a few lines: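 CHO-K1 cells stably expressing PD-L1, plated overnight, then co-cultured with PD-1/NFAT-luc2 Jurkat cells plus compounds in RPMI 1640 with 2% FBS for 6 h at 37 °C. Luminescence read after One-Glo, 10 min at RT. EC50 fitted from the concentration–signal curve; maximum induction fold calculated relative to the non-dosed group.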
Background: A reporter such as luciferase makes a cellular process visible.

The mark [3] stands for this setting: inducing endocytosis of PD-L1, MC38-hPDL1 cells, 16 hours incubation, read-out: MC38 IC50.

Read-outs that look alike come from different tables or passages of the source.

T1 sequence (Q9NZQ7 19-290): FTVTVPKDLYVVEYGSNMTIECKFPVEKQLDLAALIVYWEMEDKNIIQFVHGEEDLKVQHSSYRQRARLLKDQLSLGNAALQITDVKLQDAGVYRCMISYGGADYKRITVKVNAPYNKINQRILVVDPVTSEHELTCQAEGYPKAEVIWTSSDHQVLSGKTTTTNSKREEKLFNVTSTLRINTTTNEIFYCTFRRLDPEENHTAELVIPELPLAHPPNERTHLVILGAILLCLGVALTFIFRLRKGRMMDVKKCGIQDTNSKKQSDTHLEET

Regarding `COc1nc(-c2cccc(-c3cccc(NC(=O)c4nc5c(n4C)CCN(C)C5)c3Cl)c2Cl)ccc1CNC(CO)CO` [Embodiment 174, N-(2,2′-Dichloro-3′-(5-(((1,3-dihydroxypropan-2-yl)amino)methyl)-6-methoxypyridin-2-yl)-[1,1′-biphenyl]-3-yl)-1,5-dimethyl-4,5,6,7-tetrahydro-1H-imidazo[4,5-c]pyridine-2-carboxamide], in assay [1] (16 hours incubation), the Emax is 97%. Moreover, the IC50 (commonly the midpoint of a concentration-inhibition curve) in assay [1] (setting [3]) was found to be 1 nM. Further, in assay [2], the EC50 (usually the concentration needed to bring the measured effect to its halfway point) was determined as 66 nM and the maximal fold induction was 3.5.
Regarding `COc1nc(-c2cccc(-c3cccc(NC(=O)c4nc5c(n4C)CCN(C)C5)c3Cl)c2Cl)ccc1CNC[C@H](C)O` [Embodiment 127, (S)—N-(2,2′-Dichloro-3′-(5-(((2-hydroxypropyl)amino)methyl)-6-methoxypyridin-2-yl)-[1,1′-biphenyl]-3-yl)-1,5-dimethyl-4,5,6,7-tetrahydro-1H-imidazo[4,5-c]pyridine-2-carboxamide], the Emax in assay [1] (16 hours incubation) stood at 97%. Moreover, the IC50 in assay [1] (setting [3]) turned out to be 0.7 nM.
For the compound `COc1nc(-c2cccc(-c3cccc(NC(=O)c4nc5c(n4C)CCN(C)C5)c3Cl)c2Cl)ccc1CN1CC2(C1)CN(S(C)(=O)=O)C2` [Embodiment 192], the Emax in assay [1] (16 hours incubation) turned out to be 97%. Also, the IC50 in assay [1] (setting [3]) stood at 0.3 nM. In assay [2], the concentration for a half-maximal effect (EC50) stood at 85 nM and the maximal fold induction was determined as 3.8.
In the case of `COc1nc(-c2cccc(-c3cccc(NC(=O)c4nc5c(n4C)CCN(C)C5)c3Cl)c2Cl)ccc1CN1CC(O)(CO)C1` [Embodiment 173, N-(2,2′-Dichloro-3′-(5-((3-hydroxy-3-(hydroxymethyl)azetidin-1-yl)methyl)-6-methoxypyridin-2-yl)-[1,1-biphenyl]-3-yl)-1,5-dimethyl-4,5,6,7-tetrahydro-1H-imidazo[4,5-c]pyridine-2-carboxamide], the Emax in assay [1] (16 hours incubation) is 97%. Further, the IC50 in assay [1] (setting [3]) is 0.9 nM. In addition, in assay [2], the EC50 stood at 82 nM and the maximal fold induction was 3.7.
Regarding `COc1nc(-c2cccc(-c3cccc(NC(=O)c4nc5c(n4C)CCN(C)C5)c3Cl)c2Cl)ccc1CN[C@H]1CCOC[C@@H]1O` (relative stereo) [Embodiment 175, N-(2,2′-Dichloro-3′-(5-((((3,4-trans)-3-hydroxytetrahydro-2H-pyran-4-yl)amino)methyl)-6-methoxypyridin-2-yl)-[1,1′-biphenyl]-3-yl)-1,5-dimethyl-4,5,6,7-tetrahydro-1H-imidazo[4,5-c]pyridine-2-carboxamide], the Emax in assay [1] (16 hours incubation) worked out at 98%. Also, the IC50 in assay [1] (setting [3]) amounted to 0.4 nM. Also, in assay [2], the EC50 came out at 86 nM and the maximal fold induction is 3.6.
Regarding `CCC(=O)N1CC2(CN(Cc3ccc(-c4cccc(-c5cccc(NC(=O)c6nc7c(n6C)CCN(C)C7)c5Cl)c4Cl)nc3OC)C2)C1` [Embodiment 188, N-(2,2′-Dichloro-3′-(6-methoxy-5-((6-propionyl-2,6-diazaspiro[3.3]heptan-2-yl)methyl)pyridin-2-yl)-[1,1′-biphenyl]-3-yl)-1,5-dimethyl-4,5,6,7-tetrahydro-1H-imidazo[4,5-c]pyridine-2-carboxamide], in assay [1], half-maximal inhibition (IC50) was put at 0.4 nM. Further, the Emax in assay [1] (16 hours incubation) came out at 97%. Also, in assay [2], the EC50 turned out to be 93 nM and the maximal fold induction came out at 3.8.
For `COc1nc(-c2cccc(-c3cccc(NC(=O)c4nc5c(n4C)CCN(C)C5)c3Cl)c2Cl)ccc1CN1CC(C(=O)N(C)C)C1` [Embodiment 183, N-(2,2′-Dichloro-3′-(5-((3-(dimethylcarbamoyl)azetidin-1-yl)methyl)-6-methoxypyridin-2-yl)-[1,1′-biphenyl]-3-yl)-1,5-dimethyl-4,5,6,7-tetrahydro-1H-imidazo[4,5-c]pyridine-2-carboxamide], in assay [1] (16 hours incubation), the Emax was found to be 95%.
Regarding `CNC(=O)CNCc1cnc(C(=O)Nc2cccc(-c3cccc(NC(=O)c4nc5c(n4C)CCN(C)C5)c3Cl)c2C)cc1OC` [Embodiment 95, N-(2-Chloro-3′-(4-methoxy-5-(((2-(methylamino)-2-carbonylethyl)amino)methyl)picolinamido)-2′-methyl-[1,1′-biphenyl]-3-yl)-1,5-dimethyl-4,5,6,7-tetrahydro-1H-imidazo[4,5-c]pyridine-2-carboxamide], the Emax in assay [1] (16 hours incubation) amounted to 94%. Also, the IC50 in assay [1] (setting [3]) was determined as 2.3 nM. In assay [2], the EC50 is 94 nM and the maximal fold induction turned out to be 3.8.
`COc1nc(-c2cccc(-c3cccc(NC(=O)c4nc5c(n4C)CCN(C)C5)c3Cl)c2Cl)ccc1CNC1COC1` [Embodiment 114, N-(2,2′-Dichloro-3′-(6-methoxy-5-((oxetan-3-ylamino)methyl)pyridin-2-yl)-[1,1′-biphenyl]-3-yl)-1,5-dimethyl-4,5,6,7-tetrahydro-1H-imidazo[4,5-c]pyridine-2-carboxamide]: the Emax in assay [1] (16 hours incubation) worked out at 95%. In addition, the IC50 in assay [1] (setting [3]) stood at 1.2 nM.
Take `COc1nc(-c2cccc(-c3cccc(NC(=O)c4nc5c(n4C)CCN(C)C5)c3Cl)c2Cl)ccc1CN1CC2(COC2)C1` [Embodiment 124, N-(3′-(5-((2-Oxa-6-azaspiro[3.3]heptan-6-yl)methyl)-6-methoxypyridin-2-yl)-2,2′-dichloro-[1,1′-biphenyl]-3-yl)-1,5-dimethyl-4,5,6,7-tetrahydro-1H-imidazo[4,5-c]pyridine-2-carboxamide]: the Emax in assay [1] (16 hours incubation) was 96%. Further, the IC50 in assay [1] (setting [3]) was 0.4 nM.
As to `COc1nc(-c2cccc(-c3cccc(NC(=O)c4nc5c(n4C)CCN(C)C5)c3Cl)c2Cl)ccc1CN1CC2(C1)CN(C(C)=O)C2` [Embodiment 123, N-(3′-(5-((6-Acetyl-2,6-diazaspiro[3.3]heptan-2-yl)methyl)-6-methoxypyridin-2-yl)-2,2′-dichloro-[1,1′-biphenyl]-3-yl)-1,5-dimethyl-4,5,6,7-tetrahydro-1H-imidazo[4,5-c]pyridine-2-carboxamide], the Emax in assay [1] (16 hours incubation) amounted to 97%. Also, the IC50 in assay [1] (setting [3]) was found to be 0.4 nM. Further, in assay [2], the EC50 is 27 nM and the maximal fold induction was 3.4.
On to `COc1nc(-c2cccc(-c3cccc(NC(=O)c4nc5c(n4C)CCN(C)C5)c3Cl)c2Cl)ccc1CN1CC2(CC(NC(C)=O)C2)C1` [Embodiment 234, N-(3′-(5-((6-Acetylamino-2-azaspiro[3.3]heptan-2-yl)methyl)-6-methoxypyridin-2-yl)-2,2′-dichloro-[1,1′-biphenyl]-3-yl)-1,5-dimethyl-4,5,6,7-tetrahydro-1H-imidazo[4,5-c]pyridine-2-carboxamide], for which, in assay [1] (16 hours incubation), the Emax worked out at 97%. Also, in assay [2], a half-maximal response (EC50) required 78 nM and the maximal fold induction is 4.7.
In the case of `COc1nc(-c2cccc(-c3cccc(NC(=O)c4nc5c(n4C)CCN(C)C5)c3Cl)c2Cl)ccc1CN1CC2(C1)CN(C(=O)C(C)C)C2` [Embodiment 186, N-(2,2′-Dichloro-3′-(5-((6-isobutyryl-2,6-diazaspiro[3.3]heptan-2-yl)methyl)-6-methoxypyridin-2-yl)-[1,1′-biphenyl]-3-yl)-1,5-dimethyl-4,5,6,7-tetrahydro-1H-imidazo[4,5-c]pyridine-2-carboxamide], the Emax in assay [1] (16 hours incubation) stood at 96%. For the same compound, the IC50 in assay [1] (setting [3]) came out at 0.7 nM. Moreover, in assay [2], the response was half-maximal at 61 nM (EC50) and the maximal fold induction turned out to be 3.
As to `COc1nc(-c2cccc(-c3cccc(NC(=O)c4nc5c(n4C)CCN(C)C5)c3Cl)c2Cl)ncc1CN1CC(CO)C1` [Embodiment 223, N-(2,2′-Dichloro-3′-(5-((3-(hydroxymethyl)azetidin-1-yl)methyl)-4-methoxypyrimidin-2-yl)-[1,1′-biphenyl]-3-yl)-1,5-dimethyl-4,5,6,7-tetrahydro-1H-imidazo[4,5-c]pyridine-2-carboxamide], the Emax in assay [1] (16 hours incubation) came out at 94%. Further, in assay [2], the EC50 turned out to be 73 nM and the maximal fold induction came to 3.3.
For the compound `COc1nc(-c2cccc(-c3cccc(NC(=O)c4nc5c(n4C)CCN(C)C5)c3Cl)c2Cl)ccc1CN1CC(NC(C)=O)C1` [Embodiment 180, N-(3′-(5-((3-Acetylaminoazetidin-1-yl)methyl)-6-methoxypyridin-2-yl)-2,2′-dichloro-[1,1′-biphenyl]-3-yl)-1,5-dimethyl-4,5,6,7-tetrahydro-1H-imidazo[4,5-c]pyridine-2-carboxamide], the Emax in assay [1] (16 hours incubation) is 96%. The IC50 in assay [1] (setting [3]) was 0.6 nM. For the same compound, in assay [2], the response was half-maximal at 47 nM (EC50) and the maximal fold induction amounted to 3.1.
As for `COc1nc(-c2cccc(-c3cccc(NC(=O)c4nc5c(n4C)CCN(C)C5)c3Cl)c2Cl)ccc1CN1CC2(CCC(=O)N2)C1` [Embodiment 126, N-(2,2′-Dichloro-3′-(6-methoxy-5-((6-carbonyl-2,5-diazaspiro[3.4]octan-2-yl)methyl)pyridin-2-yl)-[1,1′-biphenyl]-3-yl)-1,5-dimethyl-4,5,6,7-tetrahydro-1H-imidazo[4,5-c]pyridine-2-carboxamide], the Emax in assay [1] (16 hours incubation) was determined as 97%. The IC50 in assay [1] (setting [3]) was determined as 1 nM. In assay [2], the response was half-maximal at 94 nM (EC50) and the maximal fold induction stood at 3.5.
Take `COc1nc(-c2cccc(-c3cccc(NC(=O)c4nc5c(n4C)CCN(C)C5)c3Cl)c2Cl)ncc1CN1CC(CNC(C)=O)C1` [Embodiment 225, N-(3′-(5-((3-(Acetylaminomethyl)azetidin-1-yl)methyl)-4-methoxypyrimidin-2-yl)-2,2′-dichloro-[1,1′-biphenyl]-3-yl)-1,5-dimethyl-4,5,6,7-tetrahydro-1H-imidazo[4,5-c]pyridine-2-carboxamide]: in assay [1] (16 hours incubation), the Emax came to 93%.
